Like-named read-outs stand apart in the source and are kept apart here.
What was measured:
Type in all cases: cell-based
[1] = system: transcription factor TEAD; assay: Activity inhibition test of transcription factor TEAD (ONE-Glo Luciferase assay, Hippo Pathway TEAD reporter-MCF7 recombinant cell line); details: Homo sapiens; TEAD Reporter-MCF7 cells, 24 hours treatment, luciferase luminescence
Experimental: The transcription factor TEAD activity of the compounds prepared in the Examples was measured by the ONE-Glo™ Luciferase assay (Promega, Catalog #E6110) method using the Hippo Pathway TEAD reporter-MCF7 recombinant cell line (BPS Bioscience, Catalog #60618). Specifically, the TEAD Reporter-MCF7 cell line contains the firefly luciferase gene whose expression is regulated under the control of TEAD response elements in the MCF7, which is a human breast cancer cell line. In the cell line, a non-phosphorylated YAP/TAZ exists in the nucleus in a non-stressed condition, which continuously induces expression of the luciferase reporter. TEAD Reporter-MCF7 cells were prepared in 100 µL of cell culture medium (MEM medium, 10% FBS, 1% P/S, 400 µg/mL Geneticin, 1% […], 1 mM NA pyruvate, 10 µg/mL Insulin) in a white clear bottom 96-well microplate. The prepared plate was incubated in a 5% CO2 incubator at 37°C for 24 hours, and then the previously prepared compounds of Examples were finally treated at concentrations of 0.0005, 0.005, 0.05, 0.5 and 5 µM, which were repeated three times for all treatment solutions. The plates treated with the compounds of Examples were incubated in a 5% CO2 incubator at 37°C for 24 hours. 100 µL/well of the substrate aqueous solution containing luciferin was added to a white clear-bottom 96 well microplate, thereby initiating an enzyme reaction. The reaction was performed at room temperature for 5 minutes, and the luminescence (integration time 1000 ms) was measured using a Flexstation3 multi-mode microplate reader. In accordance with the instructions for the ONE-Glo™ Luciferase Assay, the luciferase enzyme activity, which represents the activity of the transcription factor TEAD, was measured by a chemiluminescence method, and the inhibitory activity of the compound according to the present disclosure was calculated. The results of each compound were analyzed using Microsoft Excel, and the IC50 values were calculated by GraphPad Prism software.

NCI-H226 = assay: Cell growth inhibition test (CellTiter-Glo Luminescent Cell Viability), NCI-H226; details: Homo sapiens
Experimental: (§1) The cell growth for the compounds prepared in Examples was measured by CellTiter-Glo® Luminescednt Cell Viability (Promega, Catalog #G7571) method using NCI-H226 (addexbio), NCI-H28 (Korea Cell Line Bank) cell lines. This evaluation method is a method in which when luciferase enzyme is activated by ATP flowing out from living cells, it reacts with a luciferin substrate, and the enzyme activity at this time is measured to confirm cell viability.
(§2) Specifically, NCI-H226, and NCI-H28 cells were prepared in 100 µL of cell culture medium (RPMI medium, 10% FBS, 1% P/S, 4.5 g/L D-Glucose, 2.383 g/L HEPES Buffer, L-Glutamine, 1.5 g/L Sodium Bicarbonate, 110 mg/L Sodium pyruvate) in a white clear bottom 96-well microplate. The prepared plate was incubated in a 5% CO2 incubator at 37°C for 24 hours, and then the previously prepared compounds of Examples were finally treated at concentrations of 0.0005, 0.005, 0.05, 0.5 and 5 µM, which was repeated three times for all treatment solutions. The plates treated with the compounds of Examples were incubated in a 5% CO2 incubator at 37°C. 100 µL/well of the substrate aqueous solution containing luciferin was added to a white clear-bottom 96 well microplate, thereby initiating an enzyme reaction. The reaction was performed at room temperature in the dark for 10 minutes, and the luminescence was measured using a Flexstation3 multi-mode microplate reader. In accordance with the instructions for the CellTiter-Glo™ Luminescednt Cell Viability, the luciferase enzyme activity, which represents the amount of ATP, was measured by a chemiluminescence method, and the inhibitory activity of the compounds according to the present disclosure was calculated. The results of each compound were analyzed using Microsoft Excel, and the IC50 values were calculated using GraphPad Prism software.

NCI-H28 = assay: Cell growth inhibition test (CellTiter-Glo Luminescent Cell Viability), NCI-H28; details: Homo sapiens
Experimental: as §1, §2

[2] = NCI-H226 cells, CellTiter-Glo, read-out: growth IC50 H226
[3] = NCI-H28 cells, CellTiter-Glo, read-out: growth IC50 H28

Structure (SMILES) | IC50 [1] | IC50 (NCI-H226; [2]) | IC50 (NCI-H28; [3]) | IC50 (NCI-H226; NCI-H226, read-out: growth IC50 H226) | IC50 (NCI-H28; NCI-H28, read-out: growth IC50 H28)
CNS(=O)(=O)N1Cc2cc(Nc3ccc(C(F)(F)F)cc3)c(-c3cn(C)cn3)cc2C1 [Example 2, N-methyl-5-(1-methyl-1H-imidazol-4-yl)-6-((4-(trifluoromethyl)phenyl)amino)isoindoline-2-sulfonamide] | 1460 nM | 89.8 nM | 5200 nM | – | –
CNS(=O)(=O)N1CCc2c(ccc(Nc3ccc(C(F)(F)F)cc3)c2-c2cn(C)cn2)C1 [Example 4, N-methyl-5-(1-methyl-1H-imidazol-4-yl)-6-((4-(trifluoromethyl)phenyl)amino)-3,4-dihydroisoquinoline-2(1H)-sulfonamide] | 4840 nM | 1350 nM | 10000 nM | – | –
C=CC(=O)N1Cc2ccc(Nc3ccc(C(F)(F)F)cc3)c(-c3cn(C)cn3)c2C1 [Example 5, 1-(4-(1-methyl-1H-imidazol-4-yl)-5-((4-(trifluoromethyl)phenyl)amino)isoindolin-2-yl)prop-2-en-1-one] | 602 nM | 119 nM | 2000 nM | – | –
CNS(=O)(=O)N1Cc2ccc(Nc3ccc(C(F)(F)F)cc3)c(-c3cn(C)cn3)c2C1 [Example 6, N-methyl-4-(1-methyl-1H-imidazol-4-yl)-5-((4-(trifluoromethyl)phenyl)amino)isoindoline-2-sulfonamide] | 1560 nM | 923 nM | 6600 nM | – | –
Cn1cnc(-c2cc3c(cc2Nc2ccc(C(F)(F)F)cc2)CN(CC#N)C3)c1 [Example 8, 2-(5-(1-methyl-1H-imidazol-4-yl)-6-((4-(trifluoromethyl)phenyl)amino)isoindolin-2-yl)acetonitrile] | 9350 nM | – | – | 1530 nM | 10000 nM
C=CC(=O)N1CCc2c(ccc(Nc3ccc(F)cc3)c2-c2cn(C)cn2)C1 [Example 10, 1-(6-((4-fluorophenyl)amino)-5-(1-methyl-1H-imidazol-4-yl)-3,4-dihydroisoquinolin-2(1H)-yl)prop-2-en-1-one] | 49.6 nM | 100 nM | 1500 nM | – | –
C=CC(=O)N1Cc2cc(Nc3ccc(F)cc3)c(-c3cn(C)cn3)cc2C1 [Example 11, 1-(5-((4-fluorophenyl)amino)-6-(1-methyl-1H-imidazol-4-yl)isoindolin-2-yl)prop-2-en-1-one] | 1890 nM | – | – | – | –
C=CC(=O)N1CCc2ccc(Nc3ccc(F)cc3)c(-c3cn(C)cn3)c2C1 [Example 12, 1-(7-((4-fluorophenyl)amino)-8-(1-methyl-1H-imidazol-4-yl)-3,4-dihydroisoquinolin-2(1H)-yl)prop-2-en-1-one] | > 10000 nM | – | – | – | –
C=CC(=O)N1Cc2cc(Nc3cc(F)c(F)c(F)c3)c(-c3cn(C)cn3)cc2C1 [Example 18, 1-(5-(1-methyl-1H-imidazol-4-yl)-6-((3,4,5-trifluorophenyl)amino)isoindolin-2-yl)prop-2-en-1-one] | 239 nM | – | – | – | –
C=CC(=O)N1Cc2cc(Nc3ccc(Cl)cc3)c(-c3cn(C)cn3)cc2C1 [Example 19, 1-(5-((4-chlorophenyl)amino)-6-(1-methyl-1H-imidazol-4-yl)isoindolin-2-yl)prop-2-en-1-one] | 118 nM | – | – | – | –
C=CC(=O)N1CCc2c(ccc(Nc3cccc(C(F)(F)F)c3)c2-c2cn(C)cn2)C1 [Example 20, 1-(5-(1-methyl-1H-imidazol-4-yl)-6-((3-(trifluoromethyl)phenyl)amino)-3,4-dihydroisoquinolin-2(1H)-yl)prop-2-en-1-one] | 45 nM | 139 nM | 1120 nM | – | –
C=CC(=O)N1CCc2c(ccc(Nc3cc(Cl)cc(C(F)(F)F)c3)c2-c2cn(C)cn2)C1 [Example 22, 1-(6-((3-chloro-5-(trifluoromethyl)phenyl)amino)-5-(1-methyl-1H-imidazol-4-yl)-3,4-dihydroisoquinolin-2(1H)-yl)prop-2-en-1-one] | 242 nM | – | – | – | –
C=CC(=O)N1CCc2c(ccc(Nc3cc(C(F)(F)F)cc(C(F)(F)F)c3)c2-c2cn(C)cn2)C1 [Example 23, 1-(6-((3,5-bis(trifluoromethyl)phenyl)amino)-5-(1-methyl-1H-imidazol-4-yl)-3,4-dihydroisoquinolin-2(1H)-yl)prop-2-en-1-one] | > 5000 nM | – | – | – | –

These reach a lower IC50 [1]. Values come first.

IC50 [1] | IC50 (NCI-H226; [2]) | IC50 (NCI-H28; [3]) | Structure (SMILES) | IC50 (NCI-H226; NCI-H226, read-out: growth IC50 H226) | IC50 (NCI-H28; NCI-H28, read-out: growth IC50 H28)
42.7 nM | 21.2 nM | 3000 nM | C=CC(=O)N1Cc2cc(Nc3ccc(C(F)(F)F)cc3)c(-c3cn(C)cn3)cc2C1 [Example 1, 1-(5-(1-methyl-1H-imidazol4-yl)-6-((4-(trifluoromethyl)phenyl)amino)isoindolin-2-yl)prop-2-en-1-one] | – | –
34.2 nM | 36 nM | 778 nM | C=CC(=O)N1CCc2c(ccc(Nc3ccc(C(F)(F)F)c(F)c3)c2-c2cn(C)cn2)C1 [Example 9, 1-(6-((3-fluoro-4-(trifluoromethyl)phenyl)amino)-5-(1-methyl-1H-imidazol-4-yl)-3,4-dihydroisoquinolin-2(1H)-yl)prop-2-en-1-one] | – | –
28 nM | 55.3 nM | 2000 nM | C=CC(=O)N1CCc2c(ccc(Nc3cc(F)cc(F)c3)c2-c2cn(C)cn2)C1 [Example 13, 1-(6-((3,5-difluorophenyl)amino)-5-(1-methyl-1H-imidazol-4-yl)-3,4-dihydroisoquinolin-2(1H)-yl)prop-2-en-1-one] | – | –
25.5 nM | 9.8 nM | 951 nM | C=CC(=O)N1CCc2c(ccc(Nc3ccc(C(F)(F)F)cc3)c2-c2cn(C)cn2)C1 [Example 3, 1-(5-(1-methyl-1H-imidazol-4-yl)-6-((4-(trifluoromethyl)phenyl)amino)-3,4-dihydroisoquinolin-2(1H)-yl)prop-2-en-1-one] | – | –
14.3 nM | 37.8 nM | 2180 nM | C=CC(=O)N1CCc2c(ccc(Nc3ccc(C(F)(F)F)cc3)c2-c2cn3c(n2)CCC3)C1 [Example 7, 1-(5-(6,7-dihydro-5H-pyrrolo[1,2-a]imidazol-2-yl)-6-((4-(trifluoromethyl)phenyl)amino)-3,4-dihydroisoquinolin-2(1H)-yl)prop-2-en-1-one] | – | –
8.6 nM | 9.6 nM | 3300 nM | C=CC(=O)N1CCc2c(ccc(Nc3cc(F)c(C(F)(F)F)c(F)c3)c2-c2cn(C)cn2)C1 [Example 17, 1-(6-((3,5-difluoro-4-(trifluoromethyl)phenyl)amino)-5-(1-methyl-1H-imidazol-4-yl)-3,4-dihydroisoquinolin-2(1H)-yl)prop-2-en-1-one] | – | –
8.1 nM | 35.2 nM | 636 nM | C=CC(=O)N1CCc2c(ccc(Nc3ccc(Br)cc3)c2-c2cn(C)cn2)C1 [Example 16, 1-(6-((4-bromophenyl)amino)-5-(1-methyl-1H-imidazol-4-yl)-3,4-dihydroisoquinolin-2(1H)-yl)prop-2-en-1-one] | – | –
6.78 nM | 16.6 nM | 1800 nM | C=CC(=O)N1CCc2c(ccc(Nc3cc(F)c(F)c(F)c3)c2-c2cn(C)cn2)C1 [Example 14, 1-(5-(1-methyl-1H-imidazol-4-yl)-6-((3,4,5-trifluorophenyl)amino)-3,4-dihydroisoquinolin-2(1H)-yl)prop-2-en-1-one] | – | –
5.9 nM | 30.9 nM | 2400 nM | C=CC(=O)N1CCc2c(ccc(Nc3ccc(Cl)cc3)c2-c2cn(C)cn2)C1 [Example 15, 1-(6-((4-chlorophenyl)amino)-5-(1-methyl-1H-imidazol-4-yl)-3,4-dihydroisoquinolin-2(1H)-yl)prop-2-en-1-one] | – | –

From patent EP4786465A1, “NOVEL COMPOUND, AND PHARMACEUTICAL COMPOSITION FOR PREVENTION OR TREATMENT OF CANCER OR TUMORS COMPRISING SAME” (Daewoong Pharmaceutical Co., Ltd., priority 2023, dated 2025)
